Results as given in patent US20210282443A1, “COMPOUNDS, COMPOSITIONS, AND METHODS FOR MODULATING SWEET TASTE” (Chromocell Corporation, priority 2016, published 2021).

Tested on: perception of sweet taste of High Fructose Corn Syrup (HFCS)
Assay: 2AFC sip and spit sensory test, sweet taste of HFCS in Lemon Lime beverage
Type: in vivo, humans
Conditions: Lemon Lime pH 3.1
Procedure: The effect of the test compounds and combinations of test compounds on the perception of the sweet taste of a flavored beverage (referred to as Lemon Lime henceforth) of sweetener in humans was evaluated using a two-alternative forced choice “sip and spit” method (2AFC). The Lemon Lime solutions were prepared by adding sucrose equivalent (SE) quantities of high fructose corn syrup (HFCS) (by weight), to water to achieve the desired concentration. The lemon lime pH is 3.1. Compounds were first prepared as a 500-fold concentrated stock solution in 100% ethanol. These concentrated stocks were then added to the aqueous sweetener solutions to result in a final ethanol concentration of 0.2%. The control (positive and negative) samples were also normalized to 0.2% ethanol. This level of ethanol was not seen to contribute any perceived sweetness. The 2AFC test used for compound evaluation was a double blinded and randomized test where taste panelists (n≥15) evaluate a pair of sweetener solutions at a time—one sample contains aqueous sweetener solution plus compound (i.e. test) while the other contains aqueous sweetener solution at higher concentration without compound (i.e. positive control). Each test sample was compared against a positive control. For example, if the test sample contained 1× sweetener concentration with compound (e.g. 5brix HFCS with compound), the positive control sample contained a 1.1× sweetener concentration (e.g. 5.5brix HFCS without compound). In this manner, compounds were not assessed simply for an increase in perceived sweetness, but a significant increase in perceived sweetness above the positive control. […] Data were analyzed using binomial probabilities. Approximate levels of sweetness enhancement in column 5 of Table 1 were calculated as follows: Approximate levels of sweetness enhancement=Sweetener concentration of positive control surpassed by the test sample, divided by sweetener concentration for compound-containing sample (e.g. 1.5×=7.5brix HIFCS/5brix HIFCS).

SMILES: COc1cc(C2CC(=O)Oc3cc(C)cc(O)c32)ccc1O (racemic) [Compound 1, 5-hydroxy-4-(4-hydroxy-3-methoxyphenyl)-7-methylchroman-2-one]
- Fold increase in perceived sweetness (25 ppm compound, 10 brix HFCS / 7.14 brix HFCS): >1.4×
- Compund concentration with positive 2AFC results (test sample 7.14 brix HFCS vs positive control 10 brix HFCS, panelists n≥15): 25 ppm
- Sweetener Concentration of positive control surpassed by test sample (test sample 7.14 brix HFCS with 25 ppm compound): 10 brix HFCS
